Measurements taken from patent publication US12084431B2, “Pharmaceutical salts of pyrimidine derivatives and method of treating disorders” (ARIAD Pharmaceuticals, Inc., priority 2018, dated 2024).

Tests used:
[1] = Vapour sorption analysis (GVS, hygroscopicity); assay type: physicochemical; settings: % uptake at 90% RH
Experimental: Approximately 10 mg of the sample was placed into a mesh vapor sorption balance pan and loaded into an IGASorp Moisture Sorption Analyzer balance by Hiden Analytical. The sample was subjected to a ramping profile from 40 to 90% relative humidity (RH) at 10% increments to 90% RH, maintaining the sample at each step until a stable weight had been achieved (98% step completion). After completion of the sorption cycle, the sample was dried using the same procedure (initially from 90% RH to 0% RH and finally taken back to the starting point of 40% RH). The sorption/desorption profiles were then repeated to give a double-cycle plot. The weight changes during the sorption/desorption cycles were plotted, allowing for the hygroscopic nature of the sample to be determined.

[2] = Stability stress testing (ambient light, 40° C./75% RH, 80° C., 7 days; XRPD and HPLC purity); assay type: physicochemical; settings: for Purity, 40° C./75% RH / Purity, 80° C. / Purity, Ambient light: HPLC purity after 7 days, open vial; for Purity, Ambient light: room temperature; for XRPD after storage: 7 days; for Input purity: HPLC purity before stress storage; for Chemical Stability: summary in Table 17
Experimental: Approximately 5 mg of the appropriate samples were placed into 2 mL clear glass vials and the vials were all stored open under the conditions of ambient light, 40° C./75% RH, and 80° C. for 7 days, respectively. The ambient light sample was left open on the bench at room temperature. The 80° C. sample was placed open into an 80° C. oven.

[3] = Thermodynamic aqueous solubility studies (de-ionized water, 24 h, HPLC concentration, filtrate pH, XRPD of solid); settings: for solubility at 24 h: de-ionized water, pH 6.97, water, thermodynamic from solid; for pH at Saturation: pH of filtrate after 24 h slurry in de-ionized water (pH 6.97), ambient temperature
Experimental: The resulting solid material was isolated by centrifugation and analyzed by XRPD, while the filtrate was analyzed by HPLC for concentration determination. The pH of the resulting filtrate was also determined.

[4] = test system: advanced NSCLC (EGFR exon 20 insertions); test: Phase 1/2 study, antitumor activity / disease assessment by RECIST v1.1; assay type: in vivo, human; settings: 160 mg QD
Experimental: 52 patients were enrolled as of 30 Jan. 2018.
Disease stabilization started to be reported at the 40 mg QD cohort. Disease assessments for patients who had at least one disease assessment following treatment with Compound (A) are shown in Table 21. All patients who responded have EGFR exon 20 insertion mutations and had previously been treated with platinum-based chemotherapy, EGFR TKIs, or PD-1 inhibitors.

[5] = Phase 1/2 study, safety (adverse events, dose limiting toxicities, MTD); settings: human, in vivo
Experimental: Patients with advanced NSCLC refractory to standard therapy received daily oral doses (5-120 mg) of Compound (A) in the dose-escalation phase. Compound (A) was provided as polymorphic Form-I of the succinate salt of Compound (A). Compound (A) was formulated as a drug-in-capsule with no excipients and administered orally. Preliminary antitumor activity (by RECIST v1.1), safety and pharmacokinetics are reported for patients receiving at least one dose.
As part of the same phase ½ study as described in Example 12, a dose escalation study was performed. […] 2018.
The phase 2 portion of the study was initiated to expand the study in two 160 mg QD cohorts (EGFR exon 20 mutant NSCLC patients with or without brain metastases) and continue to enroll more patients in the 120 mg cohort.

[6] = all storage conditions (ambient light, 40° C./75% RH, 80° C.)
[7] = Solubility in Water, de-ionized water (pH 6.97), slurry shaken at ambient temperature for 24 h, filtrate by HPLC, salts of Compound (A)
[8] = other 2 conditions (40° C./75% RH and 80° C.)
[9] = number of the 26 patients in efficacy analysis

| Molecule | GVS (Hygroscopicity) [1] | Purity, 40° C./75% RH [2] | Purity, 80° C. [2] | Purity, Ambient light ([2]; ambient light) | pH at Saturation [3] | XRPD after storage [2, 6] | Input purity [2] | Chemical Stability [2] | solubility at 24 h [3, 7] [µg/mL] | XRPD after storage ([2]; ambient light) | also measured |
| --- | --- | --- | --- | --- | --- | --- | --- | --- | --- | --- | --- |
| C=CC(=O)Nc1cc(Nc2ncc(C(=O)OC(C)C)c(-c3cn(C)c4ccccc34)n2)c(OC)cc1N(C)CCN(C)C [Free Base, isopropyl 2-((5-acrylamido-4-((2-(dimethylamino)ethyl) (methyl)amino)-2-methoxyphenyl)amino)-4-(1-methyl-1H-indol-3-yl)pyrimidine-5-carboxylate] | 0.3% | 99.5 | 99.5 | 99.5 | 7.81 |  |  |  |  |  | solubility at 24 h [3]: < 10 µg/mL |
| C=CC(=O)Nc1cc(Nc2ncc(C(=O)OC(C)C)c(-c3cn(C)c4ccccc34)n2)c(OC)cc1N(C)CCN(C)C.O=C(O)/C=C/C(=O)O [Fumarate, isopropyl 2-((5-acrylamido-4-((2-(dimethylamino)ethyl) (methyl)amino)-2-methoxyphenyl)amino)-4-(1-methyl-1H-indol-3-yl)pyrimidine-5-carboxylate fumarate] | 2.0% | 99.5 | 99.5 | 99.5 | 3.98 | No change under all storage | 99.7 | Stable | 100 |  |  |
| Br.C=CC(=O)Nc1cc(Nc2ncc(C(=O)OC(C)C)c(-c3cn(C)c4ccccc34)n2)c(OC)cc1N(C)CCN(C)C [HBr, isopropyl 2-((5-acrylamido-4-((2-(dimethylamino)ethyl) (methyl)amino)-2-methoxyphenyl)amino)-4-(1-methyl-1H-indol-3-yl)pyrimidine-5-carboxylate hydrobromide] | 0.6% | 99.6 | 99.5 | 99.6 | 6.30 | No change under all storage | 99.7 | Stable | 100 |  |  |
| C=CC(=O)Nc1cc(Nc2ncc(C(=O)OC(C)C)c(-c3cn(C)c4ccccc34)n2)c(OC)cc1N(C)CCN(C)C.Cl [HCl, isopropyl 2-((5-acrylamido-4-((2-(dimethylamino)ethyl) (methyl)amino)-2-methoxyphenyl)amino)-4-(1-methyl-1H-indol-3-yl)pyrimidine-5-carboxylate hydrochloride] | 10.% | 74.5 | 91.3 | 95.1 | 6.47 |  | 99.0 | Degradation | 5800 | No change at ambient light; | XRPD after storage [2, 8]: changes observed in other 2 |
| C=CC(=O)Nc1cc(Nc2ncc(C(=O)OC(C)C)c(-c3cn(C)c4ccccc34)n2)c(OC)cc1N(C)CCN(C)C.CS(=O)(=O)O [Mesylate, isopropyl 2-((5-acrylamido-4-((2-(dimethylamino)ethyl) (methyl)amino)-2-methoxyphenyl)amino)-4-(1-methyl-1H-indol-3-yl)pyrimidine-5-carboxylate mesylate] | Drying Form | 99.6 | 99.6 | 99.6 | 2.90 |  | 99.7 | Stable | > 70000 | No change at ambient light; |  |
| C=CC(=O)Nc1cc(Nc2ncc(C(=O)OC(C)C)c(-c3cn(C)c4ccccc34)n2)c(OC)cc1N(C)CCN(C)C.O=C(O)C(=O)O [Oxalate, isopropyl 2-((5-acrylamido-4-((2-(dimethylamino)ethyl) (methyl)amino)-2-methoxyphenyl)amino)-4-(1-methyl-1H-indol-3-yl)pyrimidine-5-carboxylate oxalate] | 2.0% | 99.6 | 99.6 | 99.6 | 3.00 |  | 99.7 | Stable | 6800 | No change at ambient light; | XRPD after storage [2, 8]: minor changes observed in |
| C=CC(=O)Nc1cc(Nc2ncc(C(=O)OC(C)C)c(-c3cn(C)c4ccccc34)n2)c(OC)cc1N(C)CCN(C)C [Succinate, isopropyl 2-((5-acrylamido-4-((2-(dimethylamino)ethyl) (methyl)amino)-2-methoxyphenyl)amino)-4-(1-methyl-1H-indol-3-yl)pyrimidine-5-carboxylate succinate] |  |  |  |  |  | No change under all storage | 99.7 | Stable | 1900 |  | GVS (Hygroscopicity) ([1]; succinate): 1.3%; overall response rate (ORR) (best response) ([4]; 26 patients with EGFR exon 20 insertion mutations, 95% CI: 33.37%, 73.41%): 53.8%; disease control rate (DCR) ([4]; 26 patients with EGFR exon 20 insertion mutations, 95% CI: 69.85%, 97.55%): 88.5%; confirmed partial response (PR) [4, 9]: 7; unconfirmed PR awaiting confirmation [4, 9]: 6; Purity, 40° C./75% RH ([2]; succinate): 99.6; Purity, 80° C. ([2]; succinate): 99.6; Purity, Ambient light ([2]; ambient light, succinate): 99.6; pH at Saturation ([3]; succinate): 5.00; patients with any TEAE leading to treatment discontinuation [5]: 18.8%; patients with at least 1 Grade≥3 TEAE [5]: 58.4%; patients with at least 1 Grade≥3 TRAE [5]: 29.7%; patients with at least 1 TEAE [5]: 98.0%; patients with at least 1 TRAE [5]: 91.1%; patients with at least 1 treatment-emergent SAE [5]: 35.6%; patients with at least 1 treatment-related SAE [5]: 10.9% |
| C=CC(=O)Nc1cc(Nc2ncc(C(=O)OC(C)C)c(-c3cn(C)c4ccccc34)n2)c(OC)cc1N(C)CCN(C)C.O=S(=O)(O)O [Sulfate, isopropyl 2-((5-acrylamido-4-((2-(dimethylamino)ethyl) (methyl)amino)-2-methoxyphenyl)amino)-4-(1-methyl-1H-indol-3-yl)pyrimidine-5-carboxylate sulfate] | 11% | 96.2 | 94.9 | 98.6 | 2.19 |  | 98.3 | Degradation |  | No change at ambient light; | solubility at 24 h [3]: > 240000 µg/mL |
| isopropyl 2-((5-acrylamido-4-((2-(dimethylamino)ethyl) (methyl)amino)-2-methoxyphenyl)amino)-4-(1-methyl-1H-indol-3-yl)pyrimidine-5-carboxylate hippurate | 0.2% |  | 99.6 | 99.6 |  | No change under all storage | 99.7 | Stable |  |  |  |
